Usually IC50 stands for the concentration needed to halve the response being measured.

We go through 21 compounds from patent US9783511B2, “Carbamate benzoxazine propionic acids and acid derivatives for modulation of RORgamma activity and the treatment of disease” (Merck Sharp & Dohme Corp., priority 2013, dated 2017).

human RORgammaT-Ligand Binding Domain (LBD), sequence (P51449 269-508): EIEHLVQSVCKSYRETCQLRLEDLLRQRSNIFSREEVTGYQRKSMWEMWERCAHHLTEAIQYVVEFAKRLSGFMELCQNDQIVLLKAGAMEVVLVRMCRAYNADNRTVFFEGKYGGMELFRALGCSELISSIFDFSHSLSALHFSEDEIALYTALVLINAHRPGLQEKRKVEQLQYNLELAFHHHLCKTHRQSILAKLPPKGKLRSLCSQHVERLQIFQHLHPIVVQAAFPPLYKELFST

The experiment concerns the target human RORgammaT-Ligand Binding Domain (LBD) (Homo sapiens (Human), UniProt P51449). Put plainly: RORγ-Ligand Binding Domain TR-FRET Assay (co-activator peptide SRC1_2 recruitment). The experiment is classed as biochemical. To be noted: HIS-tagged RORγ-LBD 3 nM, biotinylated SRC1 LXXLL peptide 100 nM, incubated overnight at 4° C., 665 nm/615 nm ratio. A digest of the protocol:
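E. coli-expressed, Ni2+-purified HIS-tagged human RORγ-LBD at 3 nM final in 50 mM Tris pH 7.0, 50 mM KCl, 1 mM EDTA, 0.1 mM DTT, 100 μg/mL delipidated BSA. TR-FRET read-out of SRC1_2 co-activator peptide recruitment; compounds dispensed acoustically.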
As for `CCOc1sc(C2CC2)nc1S(=O)(=O)N1C[C@H](CCC(=O)O)Oc2ccc(NC(=O)OC(C)(C)C(F)(F)F)cc21` [Example 6CD, 3-[(2S)-4-[(2-cyclopropyl-5-ethoxy-1,3-thiazol-4-yl)sulfonyl]-6-{[(2,2,2-trifluoro-1,1-dimethylethoxy)carbonyl]amino}-3,4-dihydro-2H-1,4-benzoxazin-2-yl]propanoic acid], the IC50 came out at 0.0144 µM. In the case of `CC(C)(OC(=O)Nc1ccc2c(c1)N(S(=O)(=O)c1cccc(OC(F)F)c1)C[C@H](CCC(=O)O)O2)C(F)(F)F` [Example 6T, (S)-3-(4-((3-(difluoromethoxy)phenyl)sulfonyl)-6-((((1,1,1-trifluoro-2-methylpropan-2-yl)oxy)carbonyl)amino)-3,4-dihydro-2H-benzo[b][1,4]oxazin-2-yl)propanoic acid] it was 0.004 µM; in that of `Cc1ccc(S(=O)(=O)N2C[C@H]([C@@H]3C[C@H]3C(=O)O)Oc3ccc(NC(=O)OC(C)(C)C(F)(F)F)cc32)cc1` (single isomer, unassigned) [Example 22H, (1S,2S or 1R,2R or 1S,2R or 1R,2S)-2-((S)-4-tosyl-6-((((1,1,1-trifluoro-2-methylpropan-2-yl)oxy)carbonyl)amino)-3,4-dihydro-2H-benzo[b][1,4]oxazin-2-yl)cyclopropanecarboxylic acid], 0.141 µM; in that of `Cc1ccc(S(=O)(=O)N2C[C@H](CCC(=O)O)Oc3ccc(NC(=O)OC(C)(C)C(F)(F)F)cc32)cc1Cl` [Example 6AJ, (S)-3-(4-((3-chloro-4-methylphenyl)sulfonyl)-6-((((1,1,1-trifluoro-2-methylpropan-2-yl)oxy)carbonyl)amino)-3,4-dihydro-2H-benzo[b][1,4]oxazin-2-yl)propanoic acid], 0.014 µM. Then `CC(C)(OC(=O)Nc1ccc2c(c1)N(S(=O)(=O)c1cccc(S(C)(=O)=O)c1)C[C@H](CCC(=O)O)O2)C(F)(F)F` [Example 6X, (S)-3-(4-((3-(methylsulfonyl)phenyl)sulfonyl)-6-((((1,1,1-trifluoro-2-methylpropan-2-yl)oxy)carbonyl)amino)-3,4-dihydro-2H-benzo[b][1,4]oxazin-2-yl)propanoic acid], with 0.015 µM; and `CCc1nc(S(=O)(=O)N2C[C@H](CCC(=O)O)Oc3ccc(NC(=O)OC(C)(C)C(F)(F)F)cc32)c(OCC(F)(F)F)s1` [Example 6CG, 3-[(2S)-4-{[2-ethyl-5-(2,2,2-trifluoroethoxy)-1,3-thiazol-4-yl]sulfonyl}-6-{[(2,2,2-trifluoro-1,1-dimethylethoxy)carbonyl]amino}-3,4-dihydro-2H-1,4-benzoxazin-2-yl]propanoic acid], with 0.0229 µM. For `CC(C)(OC(=O)Nc1ccc2c(c1)N(S(=O)(=O)c1ccc(F)c(C(F)(F)F)c1)C[C@H]([C@@H]1C[C@H]1C(=O)O)O2)C(F)(F)F` [Example 22C, (1R,2R)-2-((S)-4-((4-fluoro-3-(trifluoromethyl)phenyl)sulfonyl)-6-((((1,1,1-trifluoro-2-methylpropan-2-yl)oxy)carbonyl)amino)-3,4-dihydro-2H-benzo[b][1,4]oxazin-2-yl)cyclopropanecarboxylic acid], the IC50 came out at 0.00871 µM. Then `CC(C)(OC(=O)Nc1ccc2c(c1)N(S(=O)(=O)c1c(Cl)nc3sccn13)C[C@H](CCC(=O)O)O2)C(F)(F)F` [Example 6AF, (S)-5-((2-(2-carboxyethyl)-6-((((1,1,1-trifluoro-2-methylpropan-2-yl)oxy)carbonyl)amino)-2H-benzo[b][1,4]oxazin-4(3H)-yl)sulfonyl)-6-chloroimidazo[2,1-b]thiazole], with 0.0062 µM; and `C[C@H](C[C@H]1CN(S(=O)(=O)c2ccnc(C(F)(F)F)c2)c2cc(NC(=O)OC(C)(C)C(F)(F)F)ccc2O1)C(=O)O` (single isomer, unassigned) [Example 6CZ, (R or S)-2-methyl-3-((S)-6-((((1,1,1-trifluoro-2-methylpropan-2-yl)oxy)carbonyl)amino)-4-((2-(trifluoromethyl)pyridin-4-yl)sulfonyl)-3,4-dihydro-2H-benzo[b][1,4]oxazin-2-yl)propanoic acid], with 0.0153 µM; and `CCc1nc(S(=O)(=O)N2C[C@H](C[C@@H](C)C(=O)O)Oc3ccc(NC(=O)OC(C)(C)C(F)(F)F)cc32)c(OCC(F)(F)F)s1` (single isomer, unassigned) [Example 6BR, (R or S)-3-((S)-4-((2-ethyl-5-(2,2,2-trifluoroethoxy)thiazol-4-yl)sulfonyl)-6-((((1,1,1-trifluoro-2-methylpropan-2-yl)oxy)carbonyl)amino)-3,4-dihydro-2H-benzo[b][1,4]oxazin-2-yl)-2-methylpropanoic acid], with 0.0123 µM. In the case of `C[C@@H](C[C@H]1CN(S(=O)(=O)c2cn(C(F)F)nc2Cl)c2cc(NC(=O)OC(C)(C)C(F)(F)F)ccc2O1)C(=O)O` (single isomer, unassigned) [Example 6DE, (R or S)-3-((S)-4-((3-chloro-1-(difluoromethyl)-1H-pyrazol-4-yl)sulfonyl)-6-((((1,1,1-trifluoro-2-methylpropan-2-yl)oxy)carbonyl)amino)-3,4-dihydro-2H-benzo[b][1,4]oxazin-2-yl)-2-methylpropanoic acid] it was 0.0403 µM. Take `C[C@@H](C[C@H]1CN(S(=O)(=O)c2ccnc(C3CC3)c2)c2cc(NC(=O)OC(C)(C)C(F)(F)F)ccc2O1)C(=O)O` (single isomer, unassigned) [Example 6DC, (R or S)-3-((S)-4-((2-cyclopropylpyridin-4-yl)sulfonyl)-6-((((1,1,1-trifluoro-2-methylpropan-2-yl)oxy)carbonyl)amino)-3,4-dihydro-2H-benzo[b][1,4]oxazin-2-yl)-2-methylpropanoic acid]: the IC50 came out at 0.0162 µM. Regarding `C[C@@H](C[C@H]1CN(S(=O)(=O)c2cccc(C3CC3)c2)c2cc(NC(=O)OC(C)(C)C(F)(F)F)ccc2O1)C(=O)O` (single isomer, unassigned) [Example 6CU, (S or R)-3-((S)-4-((3-cyclopropylphenyl)sulfonyl)-6-((((1,1,1-trifluoro-2-methylpropan-2-yl)oxy)carbonyl)amino)-3,4-dihydro-2H-benzo[b][1,4]oxazin-2-yl)-2-methylpropanoic acid], the concentration for half-maximal inhibition (IC50) amounted to 0.0178 µM. In the case of `CC[C@@H](C[C@H]1CN(S(=O)(=O)c2cccc(C3CC3)c2)c2cc(NC(=O)OC(C)(C)C(F)(F)F)ccc2O1)C(=O)O` (single isomer, unassigned) [Example 10F, (R or S)-2-(((S)-4-((3-cyclopropylphenyl)sulfonyl)-6-((((1,1,1-trifluoro-2-methylpropan-2-yl)oxy)carbonyl)amino)-3,4-dihydro-2H-benzo[b][1,4]oxazin-2-yl)methyl)butanoic acid], the IC50 was 0.0133 µM. Regarding `COc1cc(S(=O)(=O)N2C[C@H]([C@H]3C[C@H]3C(=O)O)Oc3ccc(NC(=O)OC(C)(C)C(F)(F)F)cc32)ccc1F` (single isomer, unassigned) [Example 22M, (1R,2S or 1R,2R or 1S,2S or 1S,2R)-2-((S)-4-((4-fluoro-3-methoxyphenyl)sulfonyl)-6-((((1,1,1-trifluoro-2-methylpropan-2-yl)oxy)carbonyl)amino)-3,4-dihydro-2H-benzo[b][1,4]oxazin-2-yl)cyclopropanecarboxylic acid], the IC50 is 0.00871 µM. In the case of `CCOc1nn(C(F)F)cc1S(=O)(=O)N1C[C@H](CCC(=O)O)Oc2ccc(NC(=O)OC(C)(C)C(F)(F)F)cc21` [Example 6AB, (S)-3-(4-((1-(difluoromethyl)-3-ethoxy-1H-pyrazol-4-yl)sulfonyl)-6-((((1,1,1-trifluoro-2-methylpropan-2-yl)oxy)carbonyl)amino)-3,4-dihydro-2H-benzo[b][1,4]oxazin-2-yl)propanoic acid] it was 0.009 µM; in that of `COc1cc(S(=O)(=O)N2C[C@H](CCC(=O)O)Oc3ccc(NC(=O)OC(C)(C)C(F)(F)F)cc32)ccn1` [Example 6AV, (S)-4-((2-(2-carboxyethyl)-6-((((1,1,1-trifluoro-2-methylpropan-2-yl)oxy)carbonyl)amino)-2H-benzo[b][1,4]oxazin-4(3H)-yl)sulfonyl)-2-methoxypyridine], 0.0241 µM; in that of `CC(C)(OC(=O)Nc1cc(F)c2c(c1)N(S(=O)(=O)c1cncc(C(F)(F)F)c1)C[C@H](CCC(=O)O)O2)C(F)(F)F` [Example 29i, 3-[(2S)-8-fluoro-6-{[(2,2,2-trifluoro-1,1-dimethylethoxy)carbonyl]ami-no}-4-{[5-(trifluoromethyl)pyridin-3-yl]sulfonyl}-3,4-dihydro-2H-1,4-benzoxazin-2-yl]propanoic acid], 0.00901 µM. With `COc1cc(S(=O)(=O)N2C[C@H](C[C@](C)(O)C(=O)O)Oc3ccc(NC(=O)OC(C)(C)C(F)(F)F)cc32)ccc1F` (single isomer, unassigned) [Example 18C, (R or S)-3-((S)-4-((4-fluoro-3-methoxyphenyl)sulfonyl)-6-((((1,1,1-trifluoro-2-methylpropan-2-yl)oxy)carbonyl)amino)-3,4-dihydro-2H-benzo[b][1,4]oxazin-2-yl)-2-hydroxy-2-methylpropanoic acid], the IC50 worked out at 0.025 µM. Then `COc1cc(C)ccc1S(=O)(=O)N1C[C@H](CCC(=O)O)Oc2ccc(NC(=O)OC(C)(C)C(F)(F)F)cc21` [Example 6AQ, (S)-3-(4-((2-methoxy-4-methylphenyl)sulfonyl)-6-((((1,1,1-trifluoro-2-methylpropan-2-yl)oxy)carbonyl)amino)-3,4-dihydro-2H-benzo[b][1,4]oxazin-2-yl)propanoic acid], with 0.0171 µM; and `COc1cc(S(=O)(=O)N2c3cc(NC(=O)OC(C)(C)C(F)(F)F)ccc3O[C@H](CC(C)(C)C(=O)O)[C@@H]2C)ccc1F` [Example 27A, 3-[(2R,3S)-4-[(4-fluoro-3-methoxyphenyl)sulfonyl]-3-methyl-6-{[(2,2,2-trifluoro-1,1-dimethylethoxy)carbonyl]ami-no}-3,4-dihydro-2H-1,4-benzoxazin-2-yl]-2,2-dimethylpropanoic acid], with 8.2 µM.
